Calls of active or inactive are those of the source. The rule behind the calls is not given here.
Key:
[1] = target: T1, D(1A) dopamine receptor (Homo sapiens, UniProt P21728); assay: Displacement of [3H]SCH23390 from dopamine D1 receptor (unknown origin)
[2] = target: T2, D(2) dopamine receptor (Homo sapiens, UniProt P14416); assay: Displacement of [3H]N-methylspiperone from dopamine D2 receptor (unknown origin) at 10 uM relative to control
[3] = target: D(1B) dopamine receptor (Homo sapiens, UniProt P21918); assay: Displacement of [3H]SCH23390 from dopamine D5 receptor (unknown origin)
[4] = species: Homo sapiens; assay: Selectivity index, ratio of Ki for displacement of [3H]SCH23390 from dopamine D5 receptor (unknown origin) to Ki for displacement of [3H]SCH23390 from dopamine D1 receptor (unknown origin)
[5] = target: T2, D(2) dopamine receptor; assay: Displacement of [3H]N-methylspiperone from dopamine D2 receptor (unknown origin)
[6] = target: T1, D(1A) dopamine receptor; assay: Antagonist activity at human dopamine D1 receptor expressed in CHO-K1 cells by cAMP Hunter assay; assay type: functional, cell-based
[7] = target: T1, D(1A) dopamine receptor; assay: Agonist activity at human dopamine D1 receptor expressed in CHO-K1 cells by cAMP Hunter assay; assay type: functional, cell-based

Sequence of D(1B) dopamine receptor (P21918 whole entry): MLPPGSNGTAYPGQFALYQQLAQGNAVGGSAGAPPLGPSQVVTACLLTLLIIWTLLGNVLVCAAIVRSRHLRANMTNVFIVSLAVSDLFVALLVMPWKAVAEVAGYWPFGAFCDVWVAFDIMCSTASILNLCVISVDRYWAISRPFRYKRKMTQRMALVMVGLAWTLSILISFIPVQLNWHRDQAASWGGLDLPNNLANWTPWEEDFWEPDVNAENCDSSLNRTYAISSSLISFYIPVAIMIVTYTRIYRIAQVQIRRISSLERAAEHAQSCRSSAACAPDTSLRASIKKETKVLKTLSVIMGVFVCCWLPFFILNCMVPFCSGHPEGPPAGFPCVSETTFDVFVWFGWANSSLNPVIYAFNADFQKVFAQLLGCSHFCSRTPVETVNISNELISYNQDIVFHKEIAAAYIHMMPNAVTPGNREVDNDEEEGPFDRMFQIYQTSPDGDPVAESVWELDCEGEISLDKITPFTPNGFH
T2 sequence (P14416 whole entry): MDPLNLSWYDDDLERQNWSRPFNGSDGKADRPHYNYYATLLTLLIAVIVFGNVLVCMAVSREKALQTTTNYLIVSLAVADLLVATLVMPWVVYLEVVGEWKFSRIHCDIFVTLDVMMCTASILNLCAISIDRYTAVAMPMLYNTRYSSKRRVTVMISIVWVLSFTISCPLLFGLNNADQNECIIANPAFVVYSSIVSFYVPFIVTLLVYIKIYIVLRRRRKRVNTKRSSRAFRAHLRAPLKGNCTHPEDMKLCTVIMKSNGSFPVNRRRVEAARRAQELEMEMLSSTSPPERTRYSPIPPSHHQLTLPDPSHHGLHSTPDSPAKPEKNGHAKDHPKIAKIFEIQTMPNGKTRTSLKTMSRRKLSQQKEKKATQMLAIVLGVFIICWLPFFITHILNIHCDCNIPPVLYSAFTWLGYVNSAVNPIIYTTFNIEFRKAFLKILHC
T1 sequence (P21728 whole entry): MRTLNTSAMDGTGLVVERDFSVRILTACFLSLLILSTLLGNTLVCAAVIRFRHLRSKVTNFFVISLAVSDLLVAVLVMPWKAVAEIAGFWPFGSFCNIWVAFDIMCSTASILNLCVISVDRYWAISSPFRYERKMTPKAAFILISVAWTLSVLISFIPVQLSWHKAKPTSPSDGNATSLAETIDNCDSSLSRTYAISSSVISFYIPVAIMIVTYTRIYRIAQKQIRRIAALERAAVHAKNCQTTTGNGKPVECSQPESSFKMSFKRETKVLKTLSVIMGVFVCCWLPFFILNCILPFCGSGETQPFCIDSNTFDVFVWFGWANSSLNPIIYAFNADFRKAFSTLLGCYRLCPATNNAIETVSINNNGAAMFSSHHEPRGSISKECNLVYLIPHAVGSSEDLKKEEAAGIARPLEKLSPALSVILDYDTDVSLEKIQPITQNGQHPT

| Ki [1] | inhibition [2] | Ki [3] | Ratio Ki [4] | Ki [5] | IC50 [6] | Activity [7] | SMILES |
| --- | --- | --- | --- | --- | --- | --- | --- |
| 48.3 nM | < 50% | 264 nM | – | – | – | – | C=CCN1CCc2cc(OC)c(O)cc2C(c2ccccc2Cl)C1 (stereo not drawn) |
| 76.1 nM | < 50% | 25.4 nM | – | – | – | – | COc1cc2c(cc1O)C(c1c(Cl)cccc1Cl)CNCC2 (stereo not drawn) |
| 133 nM | < 50% | 442 nM | 3 to 4 | – | – | – | C=CCN1CCc2cc(O)c(O)cc2C(c2ccccc2Br)C1 (stereo not drawn) |
| 41 nM | < 50% | 501 nM | – | – | – | – | C=CCN1CCc2cc(OC)c(O)cc2C(c2ccccc2Br)C1 (stereo not drawn) |
| 145 nM | < 50% | 49.1 nM | – | – | – | – | COc1cc2c(cc1O)C(c1c(Cl)cccc1Cl)CN(C)CC2 (stereo not drawn) |
| 26 nM | < 50% | 67 nM | – | – | – | – | Oc1cc2c(cc1O)C(c1ccccc1Br)CNCC2 (stereo not drawn) |
| 1040 nM | – | 479 nM | – | 1510 nM | – | – | C=CCN1CCc2cc(OC)c(O)cc2C(c2c(Cl)cccc2Cl)C1 (stereo not drawn) |
| 72 nM | < 50% | 82 nM | < 3 | – | – | – | COc1cc2c(cc1O)C(c1ccccc1Br)CNCC2 (stereo not drawn) |
| 14 nM | < 50% | 46.4 nM | 3 | – | 9.4 nM | inactive | COc1cc2c(cc1O)C(c1ccccc1Cl)CN(C)CC2 (stereo not drawn) |
| 126 nM | < 50% | 310 nM | < 3 | – | – | – | COc1cc2c(cc1O)C(c1ccccc1)CNCC2 (stereo not drawn) |
| 59.4 nM | < 50% | 223 nM | 3 to 4 | – | – | – | CN1CCc2cc(O)c(O)cc2C(c2ccccc2Br)C1 (stereo not drawn) |
| 147 nM | < 50% | 483 nM | < 3 | – | – | – | COc1cc2c(cc1O)C(c1ccccc1Cl)CNCC2 (stereo not drawn) |

| SMILES | Ki [1] | inhibition [2] | Ki [3] | Ratio Ki [4] | Ki [5] | IC50 [6] | Activity [7] |
| --- | --- | --- | --- | --- | --- | --- | --- |
| COc1cc2c(cc1O)C(c1ccccc1Br)CN(C)CC2 (stereo not drawn) | 16 nM | < 50% | 47 nM | 4 | – | – | – |
